Values quoted from earlier work, collected in patent US20030203047A1 (priority 2002, published 2003).
Like-named read-outs stand apart in the source and are kept apart here.

How the values were obtained:
[1] = test system: healthy young men; conditions: 300 mg/wk for six weeks
[2] = test system: hypogonadal men; conditions: for waking erection: Asian group of hypogonadal men; for sexual interest and activity, spontaneous erection: Caucasian group of hypogonadal men
[3] = for plasma testosterone: panhypopituitarism
[4] = test system: prostate and seminal vesicle weights; levator ani muscles
[5] = biological target: T1, aromatase (Homo sapiens, UniProt P11511); conditions: compared with chrysin, AG and ANG
T1 sequence (P11511 1-503): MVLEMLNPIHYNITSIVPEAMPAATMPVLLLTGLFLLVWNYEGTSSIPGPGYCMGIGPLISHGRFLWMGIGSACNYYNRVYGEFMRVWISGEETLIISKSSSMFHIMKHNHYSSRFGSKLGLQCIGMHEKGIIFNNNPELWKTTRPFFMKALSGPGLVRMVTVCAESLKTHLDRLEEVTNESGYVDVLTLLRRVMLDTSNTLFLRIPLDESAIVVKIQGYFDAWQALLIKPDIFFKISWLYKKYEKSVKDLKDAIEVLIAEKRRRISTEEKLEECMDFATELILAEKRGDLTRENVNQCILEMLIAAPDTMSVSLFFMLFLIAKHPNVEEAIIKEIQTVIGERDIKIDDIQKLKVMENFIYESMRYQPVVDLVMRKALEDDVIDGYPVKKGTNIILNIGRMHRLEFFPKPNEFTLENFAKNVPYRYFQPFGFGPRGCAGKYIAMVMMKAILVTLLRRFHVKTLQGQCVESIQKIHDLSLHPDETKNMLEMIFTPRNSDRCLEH

[6] = in vivo
[7] = test system: patients on dialysis; conditions: compared with placebo
[8] = test system: young female rats; conditions: constant infusion
[9] = test system: HIV-infected men; conditions: pharmacological doses
[10] = supplementation
[11] = supplementation; remark: listed apart in the source
[12] = test system: androgen receptor; conditions: seminal vesicle; relative to the unreduced steroid

CCCCCCC(=O)O[C@H]1CC[C@H]2[C@@H]3CCC4=CC(=O)CC[C@]4(C)[C@H]3CC[C@]12C [TE, testosterone enanthate]
circumferences with significant increases (of fifteen) [1]: shoulders | waking erection [2]: increased | sexual interest and activity, spontaneous erection [2]: significant increases

C[C@]12CC[C@H](O)CC1=CC[C@@H]1[C@@H]2CC[C@]2(C)C(=O)CC[C@@H]12 [DHEA, dehydro-epiandrosterone]
plasma testosterone ([3]; 50 mg dose): levels similar to those observed in young women | increase of plasma delta 4-androstenedione ([3]; 50 mg or 200 mg): significant and dose dependent | plasma estrogens, particularly estradiol ([3]; 50 mg or 200 mg): significant and dose dependent increase | plasma testosterone ([3]; 200 mg dose): slightly below the levels observed in normal men | increase of plasma dihydrotestosterone levels ([3]; both doses): small

C[C@@H]1CC2=CC(=O)CC[C@@H]2[C@H]2CC[C@]3(C)[C@@H](O)CC[C@H]3[C@@H]21 [MENT, 7α-methyl-19-nor-testosterone]
waking erection [2]: increased | sexual interest and activity, spontaneous erection [2]: significant increases | androgenic potency relative to testosterone ([4]; measured by prostate and seminal vesicle weights): four- to five-times | anabolic potency relative to testosterone ([4]; measured in the levator ani muscles): ten-times

COc1ccc(-c2coc3cc(O)cc(O)c3c2=O)cc1 [Biochanin A, 5,7-dihydroxy-4′-methoxyisoflavone]
aromatase inhibition (in words) [5]: to a lesser degree

C[C@]12CC[C@H]3[C@@H](CCC4=CC(=O)CC[C@@H]43)[C@@H]1CC[C@@H]2O [nandrolone, 19-nor-testosterone]
adverse finding associated with use [6]: azoospermia | decrease in HDL-cholesterol [6]: 25-27% | lean body mass [7]: increased significantly | energy expenditure [8]: increased

C[C@]12CC[C@H]3[C@@H](CCC4=CC(=O)CC[C@@]43C)[C@@H]1CC[C@@H]2O [Testosterone]
proportion of protein in the body composition [8]: increased

CCCCCCCCCC(=O)O[C@H]1CC[C@H]2[C@@H]3CCC4=CC(=O)CC[C@@H]4[C@H]3CC[C@]12C [nandrolone decanoate]
circumferences with significant increases (of fifteen) [1]: shoulders and chest | total weight, lean body mass, body cell mass, muscle size and strength [9]: significant gains

C[C@]12CCC(=O)C=C1CC[C@@H]1[C@@H]2CC[C@]2(C)C(=O)CC[C@@H]12 [4-androstenedione]
serum testosterone [10]: elevations

C[C@]12CC[C@H]3[C@@H](CC=C4C[C@@H](O)CC[C@@]43C)[C@@H]1CC[C@@H]2O [5-androstenediol]
proportion of protein in the body composition [8]: increased

C[C@]12CC[C@H]3[C@@H](CCC4=C[C@@H](O)CC[C@@]43C)[C@@H]1CC[C@@H]2O [4-androstenediol]
serum testosterone [10]: elevations | urine testosterone concentration relative to 4-androstenedione [11]: 10 fold

C[C@]12CCC(=O)C[C@@H]1CC[C@@H]1[C@@H]2CC[C@]2(C)[C@@H](O)CC[C@@H]12 [DHT, 5α-androstan-17β-ol-3-one]
change of affinity to the androgen receptor on 5-alpha-reduction [12]: increasing by seven- to eight-fold
